Several values for one entry are separate records, joined by “and”; a condition that tells them apart may be missing. Equal values may be shown once. Toxic doses and inconclusive results are not listed. No stated cut-off is given here; in the data, active means T/C of 150% or more; inactive means T/C below 125%.
System: L1210 leukemia ip in BDF1 mice, survival T/C
Assay: NCI In Vivo Anticancer Drug Screen. Data for tumor model L1210 Leukemia (intraperitoneal) in B6D2F1 (BDF1) mice
Details: endpoint: mean survival time, higher = longer survival
In short: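 Each compound was tested against a transplantable tumor grown in mice. The endpoint was survival, with treated animals benchmarked against vehicle controls as a simple ratio.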

[1] = dose: 100.0 mg/kg/injection, schedule: Q01DX001 (ip), vehicle: saline with Tween-80
[2] = dose: 100.0 mg/kg/injection, schedule: Q01DX009 (ip), vehicle: saline with Tween-80
[3] = dose: 200.0 mg/kg/injection, schedule: Q01DX001 (ip), vehicle: saline with Tween-80
[4] = dose: 200.0 mg/kg/injection, schedule: Q01DX009 (ip), vehicle: saline with Tween-80
[5] = dose: 400.0 mg/kg/injection, schedule: Q01DX001 (ip), vehicle: saline with Tween-80
[6] = dose: 400.0 mg/kg/injection, schedule: Q01DX009 (ip), vehicle: saline with Tween-80
[7] = dose: 400.0 mg/kg/injection, schedule: Q04DX003 (ip), vehicle: saline with Tween-80
[8] = dose: 200.0 mg/kg/injection, schedule: Q01DX001 (ip), vehicle: saline
[9] = dose: 400.0 mg/kg/injection, schedule: Q01DX001 (ip), vehicle: saline
[10] = dose: 100.0 mg/kg/injection, schedule: Q01DX009 (ip), vehicle: saline
[11] = dose: 100.0 mg/kg/injection, schedule: Q04DX003 (ip), vehicle: saline
[12] = dose: 200.0 mg/kg/injection, schedule: Q01DX009 (ip), vehicle: saline
[13] = dose: 200.0 mg/kg/injection, schedule: Q04DX003 (ip), vehicle: saline
[14] = dose: 400.0 mg/kg/injection, schedule: Q01DX009 (ip), vehicle: saline
[15] = dose: 400.0 mg/kg/injection, schedule: Q04DX003 (ip), vehicle: saline
[16] = dose: 75.0 mg/kg/injection, schedule: Q01DX001 (ip), vehicle: saline
[17] = dose: 150.0 mg/kg/injection, schedule: Q01DX001 (ip), vehicle: saline

Measured: T/C

COc1ccc(OCC(=O)N2CCCCCC2)cc1
inactive: dose: 50.0 mg/kg/injection, schedule: Q01DX001 (ip), vehicle: carboxymethylcellulose (CMC) 100 % of control | dose: 50.0 mg/kg/injection, schedule: Q01DX009 (ip), vehicle: carboxymethylcellulose (CMC) 94 % of control | dose: 50.0 mg/kg/injection, schedule: Q04DX003 (ip), vehicle: carboxymethylcellulose (CMC) 103 % of control | dose: 100.0 mg/kg/injection, schedule: Q01DX001 (ip), vehicle: carboxymethylcellulose (CMC) 106 % of control | dose: 100.0 mg/kg/injection, schedule: Q01DX009 (ip), vehicle: carboxymethylcellulose (CMC) 94 % of control and 96 % of control | dose: 100.0 mg/kg/injection, schedule: Q04DX002 (ip), vehicle: carboxymethylcellulose (CMC) 91 % of control | dose: 100.0 mg/kg/injection, schedule: Q04DX003 (ip), vehicle: carboxymethylcellulose (CMC) 100 % of control | dose: 200.0 mg/kg/injection, schedule: Q01DX001 (ip), vehicle: carboxymethylcellulose (CMC) 109 % of control | dose: 200.0 mg/kg/injection, schedule: Q01DX009 (ip), vehicle: carboxymethylcellulose (CMC) 97 % of control and 100 % of control | dose: 200.0 mg/kg/injection, schedule: Q04DX002 (ip), vehicle: carboxymethylcellulose (CMC) 105 % of control | dose: 200.0 mg/kg/injection, schedule: Q04DX003 (ip), vehicle: carboxymethylcellulose (CMC) 102 % of control | dose: 400.0 mg/kg/injection, schedule: Q04DX002 (ip), vehicle: carboxymethylcellulose (CMC) 96 % of control

CC(Cc1ccccc1)C(=O)c1ccccc1 (configuration not stated)
inactive: [1] 102 % of control | [2] 102 % of control | [3] 94 % of control | [4] 97 % of control | [5] 94 % of control | [6] 98 % of control

CCc1ccccc1NC(=O)Oc1ccc(SC)cc1
inactive: [1] 102 % of control | [2] 97 % of control and 99 % of control | dose: 100.0 mg/kg/injection, schedule: Q04DX002 (ip), vehicle: saline with Tween-80 93 % of control and 94 % of control | [3] 98 % of control | [4] 97 % of control and 89 % of control | dose: 200.0 mg/kg/injection, schedule: Q04DX002 (ip), vehicle: saline with Tween-80 96 % of control and 97 % of control | [5] 93 % of control | dose: 400.0 mg/kg/injection, schedule: Q04DX002 (ip), vehicle: saline with Tween-80 96 % of control and 107 % of control | [7] 90 % of control

COC(=O)[C@@]12OC[C@]34[C@H]([C@@H](O)[C@@H]1O)[C@@]1(C)[C@H](O)C(=O)C=C(C)[C@@H]1C[C@H]3OC(=O)C(OC(C)=O)[C@@H]24 (some centres not stated)
inactive: dose: 125.0 micrograms/kg/injection, schedule: Q01DX009 (ip), vehicle: saline + alcohol 104 % of control | dose: 250.0 micrograms/kg/injection, schedule: Q01DX009 (ip), vehicle: saline + alcohol 105 % of control | dose: 500.0 micrograms/kg/injection, schedule: Q01DX009 (ip), vehicle: saline + alcohol 96 % of control | dose: 1000.0 micrograms/kg/injection, schedule: Q01DX009 (ip), vehicle: saline + alcohol 102 % of control | dose: 2000.0 micrograms/kg/injection, schedule: Q01DX009 (ip), vehicle: saline + alcohol 104 % of control

O=S(=O)(Nc1nccs1)c1ccc(N=Nc2ccc(O)c3ncccc23)cc1
inactive: [8] 102 % of control | [9] 101 % of control

COc1cc2c(cc1OC)C1c3cc(OC)c(OC)cc3CC(=O)N1CC2 (configuration not stated)
inactive: dose: 50.0 mg/kg/injection, schedule: Q01DX009 (ip), vehicle: saline 87 % of control | [10] 104 % of control | [11] 100 % of control | [12] 102 % of control | [13] 96 % of control | [14] 98 % of control | [15] 95 % of control

c1cc(Nc2ccncc2)ccn1
inactive: dose: 6.25 mg/kg/injection, schedule: Q01DX009 (ip), vehicle: saline with Tween-80 97 % of control | dose: 12.5 mg/kg/injection, schedule: Q01DX009 (ip), vehicle: saline with Tween-80 95 % of control | dose: 25.0 mg/kg/injection, schedule: Q01DX009 (ip), vehicle: saline with Tween-80 99 % of control | dose: 25.0 mg/kg/injection, schedule: Q04DX003 (ip), vehicle: saline with Tween-80 97 % of control

CC1(C)CCC(N)CC1
inactive: [16] 93 % of control | [17] 95 % of control

Cn1cnnc1[N+](=O)[O-]
inactive: dose: 100.0 mg/kg/injection, schedule: Q04DX003 (ip), vehicle: saline sonified 105 % of control

COc1cc2ccc3cc[n+](C)cc3c2cc1OC
inactive: dose: 50.0 mg/kg/injection, schedule: Q04DX003 (ip), vehicle: saline 104 % of control | dose: 66.0 mg/kg/injection, schedule: Q01DX009 (ip), vehicle: saline 121 % of control | [10] 110 % of control | [11] 98 % of control and 104 % of control | dose: 150.0 mg/kg/injection, schedule: Q01DX009 (ip), vehicle: saline 96 % of control | [13] 110 % of control | [15] 102 % of control

N#CC(Nc1ccccc1C(N)=O)c1ccccc1 (configuration not stated)
inactive: [10] 95 % of control | [12] 106 % of control | [14] 91 % of control

COc1ccc(OC)c(CC=O)c1
inactive: dose: 100.0 mg/kg/injection, schedule: Q04DX003 (ip), vehicle: alcohol 97 % of control | dose: 200.0 mg/kg/injection, schedule: Q04DX003 (ip), vehicle: alcohol 101 % of control | dose: 400.0 mg/kg/injection, schedule: Q04DX003 (ip), vehicle: alcohol 103 % of control

Nc1cc(S(=O)O)c2cccnc2c1O
inactive: dose: 75.0 mg/kg/injection, schedule: Q01DX009 (ip), vehicle: Klucel (hydroxypropylcellulose) (HPC) 88 % of control | dose: 100.0 mg/kg/injection, schedule: Q04DX003 (ip), vehicle: Klucel (hydroxypropylcellulose) (HPC) 97 % of control | dose: 150.0 mg/kg/injection, schedule: Q01DX009 (ip), vehicle: Klucel (hydroxypropylcellulose) (HPC) 108 % of control | dose: 200.0 mg/kg/injection, schedule: Q04DX003 (ip), vehicle: Klucel (hydroxypropylcellulose) (HPC) 95 % of control | dose: 300.0 mg/kg/injection, schedule: Q01DX009 (ip), vehicle: Klucel (hydroxypropylcellulose) (HPC) 93 % of control

CCCCCCCC(=O)Oc1ccc([N+](=O)[O-])cc1
inactive: [16] 100 % of control | [17] 109 % of control | dose: 300.0 mg/kg/injection, schedule: Q01DX001 (ip), vehicle: saline 95 % of control

CCC(c1ccc(Cl)cc1)N1CCC2(CC1)C(=O)NCN2c1ccccc1 (configuration not stated)
inactive: [2] 94 % of control | dose: 100.0 mg/kg/injection, schedule: Q04DX003 (ip), vehicle: saline with Tween-80 102 % of control | [4] 96 % of control | dose: 200.0 mg/kg/injection, schedule: Q04DX003 (ip), vehicle: saline with Tween-80 104 % of control | [6] 89 % of control | [7] 91 % of control

O=C1c2ccccc2C(=O)C2C1C(c1ccccc1)N(c1ccccc1)C2c1ccccc1 (configuration not stated)
inactive: dose: 50.0 mg/kg/injection, schedule: Q01DX001 (ip), vehicle: saline 94 % of control | dose: 100.0 mg/kg/injection, schedule: Q01DX001 (ip), vehicle: saline 105 % of control | [8] 94 % of control | [9] 103 % of control

Cc1ccc(C(=O)NCc2ccc(CCc3nc(N)nc(N)c3-c3ccc(Cl)c(Cl)c3)cc2)cc1S(=O)(=O)F
inactive: [1] 100 % of control | [3] 110 % of control | [5] 114 % of control

Reference: PubChem BioAssay AID248 (DTP/NCI, 2004)
